According to patent publication US12325697B2 (Nimbus Clio, Inc., priority 2021, dated 2025):
One block for each compound: values may come before it.

Assays:
[1] = target: Recombinant human Cbl-b (aa 36-427) (Homo sapiens (Human), UniProt Q13191); experiment: Cbl-b Biochemical Assay (TR-FRET); conditions: read-out: TR-FRET hCbl-b IC50
How it was run: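 Two-step TR-FRET: 6 nM biotinylated Cbl-b preincubated 30-60 min with compound, then 60 min at RT with 1-2.5 nM Src-Zap70 and 0.5 mM ATP in HEPES pH 7.0 buffer, 1% DMSO. Stopped with 5 mM EDTA plus 100 nM UBE2D2-Ub-FL-BODIPY and 1 nM streptavidin-Tb, 60 min; 520 nm signal; IC50 from 4-parameter fit.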

[2] = target: Recombinant human c-Cbl (aa 47-435) (Homo sapiens (Human), UniProt P22681); experiment: c-Cbl Biochemical Assay (TR-FRET)
How it was run: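 Biotinylated c-Cbl (6 nM) preincubated 30 min RT with compound, then reacted 60-90 min with Src-Zap70 (2.5-10 nM) and 0.5 mM ATP, pH 7.0 HEPES buffer. Stopped with EDTA; 100 nM Bodipy-ubiquitinated UBE2D2 binding read by TR-FRET after 60 min; IC50 from 4-parameter fit.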

Sequence of Recombinant human Cbl-b (aa 36-427) (Q13191 36-427): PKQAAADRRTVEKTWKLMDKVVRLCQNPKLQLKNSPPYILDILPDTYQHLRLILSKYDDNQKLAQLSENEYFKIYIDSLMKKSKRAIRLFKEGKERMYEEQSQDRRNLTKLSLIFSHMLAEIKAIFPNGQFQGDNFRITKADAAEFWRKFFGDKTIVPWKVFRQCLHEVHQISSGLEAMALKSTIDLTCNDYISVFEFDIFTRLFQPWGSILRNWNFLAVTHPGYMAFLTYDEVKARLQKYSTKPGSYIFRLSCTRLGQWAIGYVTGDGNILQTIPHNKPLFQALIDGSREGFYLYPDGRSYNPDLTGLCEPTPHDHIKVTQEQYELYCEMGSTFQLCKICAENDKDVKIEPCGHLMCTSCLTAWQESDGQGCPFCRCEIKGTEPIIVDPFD
Sequence of Recombinant human c-Cbl (aa 47-435) (P22681 47-435): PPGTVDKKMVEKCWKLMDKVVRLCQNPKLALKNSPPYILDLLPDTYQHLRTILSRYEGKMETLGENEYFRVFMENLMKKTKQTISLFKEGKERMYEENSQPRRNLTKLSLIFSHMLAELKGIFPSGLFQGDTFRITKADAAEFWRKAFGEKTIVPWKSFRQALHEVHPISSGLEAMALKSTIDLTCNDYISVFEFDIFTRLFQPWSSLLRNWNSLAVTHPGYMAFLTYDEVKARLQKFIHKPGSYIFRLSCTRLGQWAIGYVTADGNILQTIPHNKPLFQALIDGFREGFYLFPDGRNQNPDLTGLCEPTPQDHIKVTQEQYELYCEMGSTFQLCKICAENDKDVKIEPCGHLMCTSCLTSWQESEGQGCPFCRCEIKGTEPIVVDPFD

Compound: Cn1cnnc1-c1cc(Cl)ccc1-c1cc(C2CC2)nc(N2Cc3ccc(CNCC4CCC4)cc3C2=O)c1 [AIV-2, 2-(4-(4-Chloro-2-(4-methyl-4H-1,2,4-triazol-3-yl)phenyl) -6-cyclopropylpyridin-2-yl)-6-(((cyclobutylmethyl)amino)methyl) isoindolin-1-one]
IC50 [1]: ≤ 0.2 µM
IC50 [2]: ≤ 0.2 µM

Compound: COC(C)(C)CNCc1ccc2c(c1)C(=O)N(c1cc(-c3ccc(C#N)cc3-c3nncn3C)cc(C3CC3)n1)C2 [AIW-2, 4-[2-Cyclopropyl-6-(6-{[(2-methoxy-2-methylpropyl)amino]methyl}-1-oxo-3H-isoindol-2-yl)pyridin-4-yl]-3-(4-methyl-1,2,4-triazol-3-yl)benzonitrile]
IC50 [1]: ≤ 0.2 µM
IC50 [2]: ≤ 0.2 µM

Compound: CN(Cc1ccc2c(c1)C(=O)N(c1cc(-c3ccc(C#N)cc3-c3nncn3C)cc(C3CC3)n1)C2)CC1CC1 [AIX-2, 4-[2-Cyclopropyl-6-(6-{[(cyclopropylmethyl)(methyl)amino]methyl}-1-oxo-3H-isoindol-2-yl)pyridin-4-yl]-3-(4-methyl-1,2,4-triazol-3-yl)benzonitrile]
IC50 [1]: ≤ 0.2 µM
IC50 [2]: ≤ 0.2 µM

Compound: CNCCOCc1ccc2c(c1)C(=O)N(c1cc(-c3ccc(C#N)cc3-c3nncn3C)cc(C3CC3)n1)C2 [AIY-2, 4-[2-Cyclopropyl-6-(6-{[2-(methylamino)ethoxy]methyl}-1-oxo-3H-isoindol-2-yl)pyridin-4-yl]-3-(4-methyl-1,2,4-triazol-3-yl)benzonitrile]
IC50 [1]: ≤ 0.2 µM
IC50 [2]: ≤ 0.2 µM

Compound: CN1CC[C@@H](NCc2ccc3c(c2)C(=O)N(c2cc(-c4ccc(C#N)cc4-c4nncn4C)cc(C4CC4)n2)C3)C1=O [AIZ-2, 4-{2-Cyclopropyl-6-[6-({[(3R)-1-methyl-2-oxopyrrolidin-3-yl]amino}methyl)-1-oxo-3H-isoindol-2-yl]pyridin-4-yl}-3-(4-methyl-1,2,4-triazol-3-yl)benzonitrile]
IC50 [1]: ≤ 0.2 µM
IC50 [2]: ≤ 0.2 µM

Compound: CC[C@H](O)CNCc1ccc2c(c1)C(=O)N(c1cc(-c3ccc(C#N)cc3-c3nncn3C)cc(C3CC3)n1)C2 [AJA-2, (S)-4-(2-Cyclopropyl-6-(6-(((2-hydroxybutyl)amino)methyl)-1-oxoisoindolin-2-yl)pyridin-4-yl)-3-(4-methyl-4H-1,2,4-triazol-3-yl)benzonitrile]
IC50 [1]: ≤ 0.2 µM
IC50 [2]: ≤ 0.2 µM

Compound: CCOc1cc(-c2ccc(F)cc2-c2nncn2C)cc(N2Cc3c(OC)cc(CO)cc3C2=O)n1 [AJC-1, 2-(6-Ethoxy-4-(4-fluoro-2-(4-methyl-4H-1,2,4-triazol-3-yl)phenyl)pyridin-2-yl)-6-(hydroxymethyl)-4-methoxyisoindolin-1-one]
IC50 [1]: ≤ 0.2 µM
IC50 [2]: ≤ 0.2 µM

Compound: Cn1cnnc1-c1cc(C#N)ccc1-c1cccc(N2Cc3ccc(CO)cc3C2=O)c1 [AJD-2, 3′-(6-(Hydroxymethyl)-1-oxoisoindolin-2-yl)-2-(4-methyl-4H-1,2,4-triazol-3-yl)-[1,1′-biphenyl]-4-carbonitrile]
IC50 [1]: 1 to 10 µM
IC50 [2]: 1 to 10 µM

Compound: Cn1cnnc1-c1cc(C#N)ccc1-c1cccc(N2Cc3ccc(CNCC4CC4)cc3C2=O)c1 [AJE-2, 3′-(6-(((Cyclopropylmethyl)amino)methyl)-1-oxoisoindolin-2-yl)-2-(4-methyl-4H-1,2,4-triazol-3-yl)-[1,1′-biphenyl]-4-carbonitrile]
IC50 [1]: ≤ 0.2 µM
IC50 [2]: ≤ 0.2 µM

Compound: COCCNCc1ccc2c(c1)C(=O)N(c1cccc(-c3ccc(C#N)cc3-c3nncn3C)c1)C2 [AJF-1, 3′-(6-(((2-Methoxyethyl)amino)methyl)-1-oxoisoindolin-2-yl)-2-(4-methyl-4H-1,2,4-triazol-3-yl)-[1,1′-biphenyl]-4-carbonitrile]
IC50 [1]: ≤ 0.2 µM
IC50 [2]: ≤ 0.2 µM

Compound: COCC1(NCc2ccc3c(c2)C(=O)N(c2cc(-c4ccc(C#N)cc4-c4nncn4C)cc(C4CC4)n2)C3)CCC1 [AJG-2, 4-(2-cyclopropyl-6-(6-(((1-(methoxymethyl)cyclobutyl)amino)methyl)-1-oxoisoindolin-2-yl)pyridin-4-yl)-3-(4-methyl-4H-1,2,4-triazol-3-yl)benzonitrile]
IC50 [1]: ≤ 0.2 µM
IC50 [2]: ≤ 0.2 µM

Compound: CC(=O)c1ccc2c(c1)C(=O)N(c1cc(-c3ccc(C#N)cc3-c3nncn3C)cc(C3CC3)n1)C2 [AJH-3, 4-(2-(6-Acetyl-1-oxoisoindolin-2-yl)-6-cyclopropylpyridin-4-yl)-3-(4-methyl-4H-1,2,4-triazol-3-yl)benzonitrile]
IC50 [1]: ≤ 0.2 µM
IC50 [2]: ≤ 0.2 µM

IC50 [1]: ≤ 0.2 µM
IC50 [2]: ≤ 0.2 µM
Compound: CC(NCC1CC1)c1ccc2c(c1)C(=O)N(c1cc(-c3ccc(C#N)cc3-c3nncn3C)cc(C3CC3)n1)C2 (centres unmarked) [AJI-1, 4-(2-Cyclopropyl-6-(6-(1-((cyclopropylmethyl)amino)ethyl)-1-oxoisoindolin-2-yl)pyridin-4-yl)-3-(4-methyl-4H-1,2,4-triazol-3-yl)benzonitrile]

Compound: C[C@@H](NCC1CC1)c1ccc2c(c1)C(=O)N(c1cc(-c3ccc(C#N)cc3-c3nncn3C)cc(C3CC3)n1)C2 [AJJ-1, (R)-4-(2-Cyclopropyl-6-(6-(1-((cyclopropylmethyl)amino)ethyl)-1-oxoisoindolin-2-yl)pyridin-4-yl)-3-(4-methyl-4H-1,2,4-triazol-3-yl)benzonitrile]
IC50 [1]: ≤ 0.2 µM
IC50 [2]: ≤ 0.2 µM

Compound: C[C@H](NCC1CC1)c1ccc2c(c1)C(=O)N(c1cc(-c3ccc(C#N)cc3-c3nncn3C)cc(C3CC3)n1)C2 [AJK-1, (S)-4-(2-Cyclopropyl-6-(6-(1-((cyclopropylmethyl)amino)ethyl)-1-oxoisoindolin-2-yl)pyridin-4-yl)-3-(4-methyl-4H-1,2,4-triazol-3-yl)benzonitrile]
IC50 [1]: ≤ 0.2 µM
IC50 [2]: ≤ 0.2 µM

Compound: Cn1cnnc1-c1cc(C#N)ccc1-c1cc(C2CC2)nc(N2Cc3ccc(O)cc3C2=O)c1 [AJL-2, 4-(2-cyclopropyl-6-(6-hydroxy-1-oxoisoindolin-2-yl)pyridin-4-yl)-3-(4-methyl-4H-1,2,4-triazol-3-yl)benzonitrile]
IC50 [1]: ≤ 0.2 µM
IC50 [2]: ≤ 0.2 µM

Compound: Cn1cnnc1-c1cc(C#N)ccc1-c1cc(C2CC2)nc(N2Cc3ccc(OC[C@@H](O)CO)cc3C2=O)c1 [AJM-3, (S)-4-(2-Cyclopropyl-6-(6-(2,3-dihydroxypropoxy)-1-oxoisoindolin-2-yl)pyridin-4-yl)-3-(4-methyl-4H-1,2,4-triazol-3-yl)benzonitrile]
IC50 [1]: ≤ 0.2 µM
IC50 [2]: ≤ 0.2 µM

Compound: Cn1cnnc1-c1cc(C#N)ccc1-c1cc(C2CC2)nc(N2Cc3ccc(OC[C@H](O)CO)cc3C2=O)c1 [AJN-3, (R)-4-(2-Cyclopropyl-6-(6-(2,3-dihydroxypropoxy)-1-oxoisoindolin-2-yl)pyridin-4-yl)-3-(4-methyl-4H-1,2,4-triazol-3-yl)benzonitrile]
IC50 [1]: ≤ 0.2 µM
IC50 [2]: ≤ 0.2 µM

Compound: CCOc1cc(-c2ccc(F)cc2-c2nncn2C)cc(N2Cc3c(OC)cc(CN(C)CC4(O)CCC4)cc3C2=O)n1 [AJO-2, 2-(6-Ethoxy-4-(4-fluoro-2-(4-methyl-4H-1,2,4-triazol-3-yl)phenyl)pyridin-2-yl)-6-((((1-hydroxycyclobutyl)methyl)(methyl)amino)methyl)-4-methoxyisoindolin-1-one]
IC50 [1]: ≤ 0.2 µM
IC50 [2]: ≤ 0.2 µM

Compound: Cn1cnnc1-c1cc(C#N)ccc1-c1cc(C2CC2)cc(N2Cc3ccc(CO)cc3C2=O)c1 [AJP-7, 3′-Cyclopropyl-5′-(6-(hydroxymethyl)-1-oxoisoindolin-2-yl)-2-(4-methyl-4H-1,2,4-triazol-3-yl)-[1,1′-biphenyl]-4-carbonitrile]
IC50 [1]: 0.2 to 1 µM
IC50 [2]: 1 to 10 µM

Compound: COCCNCc1ccc2c(c1)C(=O)N(c1cc(-c3ccc(C#N)cc3-c3nncn3C)cc(C3CC3)c1)C2 [AJQ-2, 3′-Cyclopropyl-5′-(6-(((2-methoxyethyl)amino)methyl)-1-oxoisoindolin-2-yl)-2-(4-methyl-4H-1,2,4-triazol-3-yl)-[1,1′-biphenyl]-4-carbonitrile]
IC50 [1]: ≤ 0.2 µM
IC50 [2]: ≤ 0.2 µM

Compound: Cn1cnnc1-c1cc(C#N)ccc1-c1cc(C2CC2)cc(N2Cc3ccc(CNCC4CC4)cc3C2=O)c1 [AJR-1, 3′-Cyclopropyl-5′-(6-{[(cyclopropylmethyl)amino]methyl}-1-oxo-3H-isoindol-2-yl)-2-(4-methyl-1,2,4-triazol-3-yl)-[1,1′-biphenyl]-4-carbonitrile]
IC50 [1]: ≤ 0.2 µM
IC50 [2]: ≤ 0.2 µM

Compound: CN(Cc1ccc2c(c1)C(=O)N(c1cc(-c3ccc(F)cc3-c3nncn3C)cc(C3CC3)n1)C2)CC1(O)CCC1 [AJS-1, 2-(6-Cyclopropyl-4-(4-fluoro-2-(4-methyl-4H-1,2,4-triazol-3-yl)phenyl)pyridin-2-yl)-6-((((1-hydroxycyclobutyl)methyl) (methyl)amino)methyl)isoindolin-1-one]
IC50 [1]: ≤ 0.2 µM
IC50 [2]: ≤ 0.2 µM

Compound: CCOc1cc(-c2ccc(F)cc2-c2nncn2C)cc(N2Cc3ccc(CN(C)CC4(O)CCC4)cc3C2=O)n1 [AJT-1, 2-{6-Ethoxy-4-[4-fluoro-2-(4-methyl-1,2,4-triazol-3-yl)phenyl]pyridin-2-yl}-6-({[(1-hydroxycyclobutyl)methyl] (methyl)amino}methyl)-3H-isoindol-1-one]
IC50 [1]: ≤ 0.2 µM
IC50 [2]: ≤ 0.2 µM

Compound: CNC[C@H](O)COc1ccc2c(c1)C(=O)N(c1cc(-c3ccc(C#N)cc3-c3nncn3C)cc(C3CC3)n1)C2 [AJU-3, 4-(2-Cyclopropyl-6-{6-[(2S)-2-hydroxy-3-(methylamino)propoxy]-1-oxo-3H-isoindol-2-yl}pyridin-4-yl)-3-(4-methyl-1,2,4-triazol-3-yl) benzonitrile]
IC50 [1]: ≤ 0.2 µM
IC50 [2]: ≤ 0.2 µM
